# Columns and labels:
# [1] = system: HEK-Blue IL-2 reporter cells, IL-2-stimulated STAT5 SEAP reporter; assay: HEK-Blue IL-2 reporter assay (SEAP) for determining selectivity; type: cell-based; conditions: 4 ng/mL human recombinant IL-2, SEAP readout, read-out: IL-2 (SEAP selectivity, IC50 class)
# Description: (§1) HEK-Blue™ IL-2 and IFNγ reporter cells with a stably-integrated cytokine receptor and STAT5 or STAT1 express STAT-inducible secreted embryonic alkaline phosphatase (SEAP) reporter gene upon cytokine stimulation. These cells were plated in DMEM (Gibco) containing 10% heat-inactivated FBS (Gibco) and 100 U/mL PenStrep (Gibco) at 37° C. under 5% CO2 conditions for 20-22 hours. The cells were then pretreated with serially diluted test compounds for 60 min prior to stimulation with either 4 ng/mL human recombinant IL-2 (Miltenyl Biotech) or 50 ng/mL human recombinant IFNγ (InvivoGen) for 24 hours. SEAP induction was measured using the QUANTI-Blue™ Solution (InvivoGen) according to the manufacturer's instructions.
# [2] = system: HEK-Blue IFNγ reporter cells, IFNγ-stimulated STAT1 SEAP reporter; assay: HEK-Blue IFNγ reporter assay (SEAP) for determining selectivity; type: cell-based; conditions: Homo sapiens, 50 ng/mL human recombinant IFNγ, SEAP readout, read-out: IFN-γ (SEAP selectivity, IC50 class)
# Description: as §1
smiles,measurement,setting,value
"[2H]C([2H])([2H])NC(=O)c1nnc(NC(=O)C2CC2)cc1Nc1nccc2c1N(C)[C@@H](C)c1nc(C)nn1-2 [Compound 112, (S)-6-(cyclopropanecarboxamido)-N-(methyl-d3)-4-((2,4,5-trimethyl-4,5-dihydropyrido[3,4-e][1,2,4]triazolo[1,5-a]pyrazin-6-yl)amino)pyridazine-3-carboxamide]",IC50,[1],> 1000 nM
same,IC50,[2],> 1000 nM
"[2H]C([2H])([2H])NC(=O)c1nnc(NC(=O)C2CC2)cc1Nc1nccc2c1N(C)[C@H](C([2H])([2H])[2H])c1nn(C)nc1-2 [Compound 114, (R)-6-(cyclopropanecarboxamido)-4-((2,5-dimethyl-4-(methyl-d3)-4,5-dihydro-2H-[1,2,3]triazolo[4,5-c][1,7]naphthyridin-6-yl)amino)-N-(methyl-d3)pyridazine-3-carboxamide]",IC50,[1],> 1000 nM
"[2H]C([2H])([2H])NC(=O)c1nnc(NC(=O)[C@H]2C[C@H]2F)cc1Nc1nccc2c1N(C)Cc1nn(C)nc1-2 [Compound 115, 4-((2,5-dimethyl-4,5-dihydro-2H-[1,2,3]triazolo[4,5-c][1,7]naphthyridin-6-yl)amino)-6-((1R,2R)-2-fluorocyclopropane-1-carboxamido)-N-(methyl-d3)pyridazine-3-carboxamide]",IC50,[1],300 to 1000 nM
same,IC50,[2],30 to 300 nM

# Source: US12103937B2, “Substituted pyridines and pyridazines as TYK2 inhibitors” (Sudo Biosciences Limited, priority 2021, dated 2024)
